Source: patent publication US20250269000A1, “ANTI-TUMOUR RESPONSES TO CYTOKERATINS” (SCANCELL LIMITED, priority 2020, published 2025)
Where a SMILES comes first, the peptide text is derived from it. Where no end group is shown, it is not given here. [ ]: non-standard residue; d: D form. Cit = NC(=O)NCCC[C@H](N)C(=O)O

Experiments:
[1] = test system: B16 HHDII/iDP4 tumour cells; test: Tumour challenge, B16 HHDII/iDP4 in HHDII/DP4 mice; assay type: in vivo; details: immunised tumour bearing HHDII/DP4 mice
Description: HHDII/DP4 mice were challenged with B16 tumour with IFNγ inducible DP4. Four days later the HHDII/DP4 mice were immunised with Cyk8 371-388 cit or Cyk8 371-388 wt peptide on days 4, 11 and 18. Overall survival (A), tumour volume (B) at day 29 and tumour volume throughout the study (C), post tumour implant are shown for unimmunised control mice and mice immunised with either Cyk8 371-388 cit peptide or Cyk8 371-388 wt peptide. Statistical differences between immunised and control mice were determined by Mantel-Cox test, p values are shown. The tumour volume medians and p values are shown as determined by Mann Whitney U test, n=10 in all group.
HHDII/DP4 mice were challenged with B16 tumour with IFNγ inducible DP4. Four days later the HHDII/DP4 mice were immunised with Cyk8 371-388 cit peptide on days 4, 11 and 18. Overall survival (A), tumour volume (B) at day 24 and tumour volume throughout the study (C), post tumour implant are shown for unimmunised control mice and mice immunised with Cyk8 101-120 cit peptide. Statistical differences between immunised and control mice were determined by Mantel-Cox test, p values are shown. The tumour volume medians and p values are shown as determined by Mann Whitney U test, n=10 in all group.
For tumour challenge experiments, mice were challenged with 1×10^5 B16 HHDII/iDP4 cells subcutaneously on the right flank […] before primary immunisation (unless stated otherwise) and then immunised as described above. Tumour growth was monitored at 3-4 days intervals and mice humanely euthanised once tumour reached ≥10 mm in diameter.
The effect of immunisation with Cyk8 371-388 (cit and wt) on the growth of the mouse B16 melanoma cell line transfected with IFNγ inducible human DP4 (iDP4) was assessed in HHDII/DP4 transgenic mice (FIG. 9A). […]
The effect of immunisation with Cyk8 101-120 cit on the growth of the mouse B16 melanoma cell line transfected with IFNγ inducible human DP4 (iDP4) was assessed in HHDII/DP4 transgenic mice (FIG. 10A). […]

[2] = test system: HHDII/DP4 transgenic mice; test: Ex vivo IFNγ ELISpot on splenocytes of peptide-immunised HHDII/DP4 mice; assay type: in vivo, mouse; details: for IFNγ responses detected in immunised mice: 25 μg peptide s.c. with CpG/MPLA once a week for three weeks, ELISpot 7 days after third immunisation; for IFNγ response in the presence of the CD8 antibody / IFNγ response in the presence of the anti CD4 antibody: HHDII/DP4, blocking antibody 20 μg/mL; for cross-reactivity of the response to the wt version: HHDII/DP4 mice immunised with cit peptide; for IFNγ response to citrullinated peptide compared to media only: screening, HHDII/DP4 mice, 25 μg peptide with CpG/MPLA weekly for three weeks; for T cell responses in HLA-DP4 transgenic mice / reactivity to the unmodified wildtype sequence: summary statement
Method: The HHDII/HLA-DP4 transgenic strain of mouse as described in patent WO2013/017545 A1 (EMMA repository, France) and C57BL/6 mice (Charles River, UK) were used, aged between 8 and 12 weeks, and cared for by the staff at Nottingham Trent University. All work was carried out under a Home Office project licence. Peptides were dissolved in 10% dimethylformamide to 1 mg/mL and then emulsified (a series of dilutions) with the adjuvant CpG and MPLA 6 μg/mouse of each (Invivogen, UK). Peptides (25 μg/mouse) were injected subcutaneously at the base of the tail.
ELISpot assays were performed using murine IFNγ capture and detection reagents according to the manufacturer's instructions (Mabtech, Sweden). In brief, anti-IFNγ antibody was coated onto wells of a 96-well Immobilin-P plate. Synthetic peptides (at a variety of concentrations) and 5×10^5 per well splenocytes were added to the wells of the plate in triplicate. LPS at 5 μg/mL was used as a positive control. Peptide pulsed target cells were added where relevant at 5×10^4 per well in triplicate and plates incubated for 40 hours at 37° C. After incubation, captured IFNγ was detected by a biotinylated anti-IFNγ antibody and developed with a streptavidin alkaline phosphatase and chromogenic substrate. Lipopolysaccharide (LPS; 5 μg/mL) was used as a positive control. For blocking studies, anti-CD4 blocking antibody (RPA-T4) and anti-CD8 blocking antibody (2.43) from Bioxcell were used at 20 μg/mL. Spots were analysed and counted using an automated plate reader (Cellular Technologies Ltd).
HHDII/DP4 and C57BL/6 mice were immunised with human citrullinated peptides in combination with CpG/MPLA as an adjuvant. 25 μg of peptide was administered subcutaneously as a single immunisation given once a week for three weeks Mice were culled 7 days after the third immunisation, the immune response to each peptide was assessed by ex vivo IFNγ ELISpot (FIG. 2). We have previously shown that citrullinated peptides can induce responses in the transgenic DR4 mouse strain. Given that different mouse strains have different MHC repertoires, the transgenic strain HHDII/DP4 and non-transgenic C57BL/6 mice were used for screening.
To determine if the immune response to the Cyk8 peptides is specific to the citrullinated peptide and not the wild type (wt) version, HHDII/DP4 transgenic mice were immunised with Cyk8 101-120 cit, 133-151 cit, 217-236 cit, 371-388 cit, 381-399 cit or Cyk8 101 wt, 133-151 wt, 371-388 wt peptides. HHDII/DP4 mice received 25 μg peptide with CpG/MPLA subcutaneously once a week for three weeks. Mice were culled 7 days after the third immunisation, the immune response to each peptide was assessed by ex vivo ELISpot (FIGS. 3A and 3B).
To determine whether the response to Cyk8 8-26 cit, Cyk8 101-120 cit, Cyk8 133-151 cit, Cyk8 371-388 cit, Cyk8 381-399 cit is CD4 dependent HHDII/DP4 transgenic mice and C57BL/6 mice received 25 μg peptide subcutaneously in combination with CpG/MPLA as an adjuvant, once a week for three weeks (FIG. 6A HHDII/DP4, FIG. 6B C57BL/6). Mice were culled 7 days after the third immunisation, an ELISpot assay was performed in the presence of an anti CD4 or CD8 antibody. […]

[3] = test system: splenocytes of immunised HHDII/DP4 mice; test: Peptide titration (avidity of T cell response) by IFNγ ELISpot; assay type: cell-based, mouse; details: peptide titration 0.001 to 10 μg/ml
Method: Transgenic mouse strains expressing HHDII/DP4 and parental C57BL mice were used to screen for IFNγ responses to peptide (A and B respectively). Mice were immunised with peptide pools of up to 2-3 non-overlapping human Cyk8 citrullinated peptides over three weeks. Splenocytes were harvested 21 days after the initial dose was administered. Ex vivo responses to stimulation with human Cyk8 cit peptides was assessed by IFNγ ELISpot. Media only responses were used as a negative control. n≥3 symbol represents mean response for individual mice, line represents median value between mice. Statistical significance of peptide response was compared to media only responses for each pool and determined using ANOVA with Dunnett's post-hoc test * […], ** p<0.01, *** p<0.001, **** p<0.0001, only significant p values are shown. […]
ELISpot assays were performed using murine IFNγ capture and detection reagents according to the manufacturer's instructions (Mabtech, Sweden). […] After incubation, captured IFNγ was detected by a biotinylated anti-IFNγ antibody and developed with a streptavidin alkaline phosphatase and chromogenic substrate. […] Spots were analysed and counted using an automated plate reader (Cellular Technologies Ltd).
Significant IFNγ responses were detected to human Cyk8 citrullinated peptides in transgenic HHDII/DP4 mice (FIG. 2A) and C57BL/6 mice (FIG. 2B). […]

Molecule	associated toxicity [1]	IFNγ responses detected in immunised mice [2]	cross-reactivity of the response to the wt version [2]	IFNγ response to citrullinated peptide compared to media only [2]	T cell responses in HLA-DP4 transgenic mice [2]	reactivity to the unmodified wildtype sequence [2]	other results
CC[C@H](C)[C@H](NC(=O)[C@H](Cc1ccccc1)NC(=O)[C@H](CO)NC(=O)[C@H](C)NC(=O)[C@H](Cc1ccccc1)NC(=O)[C@@H](N)CCCCN)C(=O)N[C@@H](CC(=O)O)C(=O)N[C@@H](CCCCN)C(=O)N[C@H](C(=O)N[C@@H](CCCNC(N)=O)C(=O)N[C@@H](Cc1ccccc1)C(=O)N[C@@H](CC(C)C)C(=O)N[C@@H](CCC(=O)O)C(=O)N[C@@H](CCC(N)=O)C(=O)N[C@@H](CCC(N)=O)C(=O)N[C@@H](CC(N)=O)C(=O)N[C@@H](CCCCN)C(=O)N[C@@H](CCSC)C(=O)N[C@@H](CC(C)C)C(=O)N[C@@H](CCC(=O)O)C(=O)O)C(C)C [Cyk8 101-120 cit, KFASFIDKV-cit-FLEQQNKMLE] (H-KFASFIDKV[Cit]FLEQQNKMLE-OH)	no associated toxicity	–	–	–	–	–	–
RSNMDNMFESYINNLRRQL (listed as Homo sapiens) [Cyk8 131-15 wt, wild type (unmodified) Cyk8 133-151 peptide, reference compound]	–	Low to moderate	–	–	–	–	–
KLALDIEIATY-cit-KLLEGEE (KLALDIEIATY[Cit]KLLEGEE) [Cyk8 381-399 cit, Cyk8 381-399, citrullinated at position 392]	–	Moderate to high	no cross-reactivity	significant immune responses	potent T cell responses	minimal reactivity	IFNγ response in the presence of the CD8 antibody [2]: significantly reduced; IFNγ response in the presence of the anti CD4 antibody [2]: significantly reduced
cit-SNMDNMFESYINNL-cit-cit-QL ([Cit]SNMDNMFESYINNL[Cit][Cit]QL) [Cyk8 133-151 cit, Cyk8 133-151, citrullinated at position 133, 148 and 149]	–	Moderate to high	no cross-reactivity	significant immune responses	potent T cell responses	minimal reactivity	IFNγ response in the presence of the CD8 antibody [2]: not significantly reduced; IFNγ response in the presence of the anti CD4 antibody [2]: not significantly reduced; log EC50 (avidity of T cell response) [3]: -6.0 to-6.5 M
CC[C@H](C)[C@H](NC(=O)[C@H](CCC(=O)O)NC(=O)[C@@H](NC(=O)[C@H](CC(=O)O)NC(=O)[C@H](CC(C)C)NC(=O)[C@H](C)NC(=O)[C@H](CC(C)C)NC(=O)[C@H](CCCCN)NC(=O)[C@@H](NC(=O)[C@H](CC(N)=O)NC(=O)[C@H](CCSC)NC(=O)[C@H](CC(C)C)NC(=O)[C@H](CCC(=O)O)NC(=O)[C@H](CCC(N)=O)NC(=O)[C@H](Cc1ccc(O)cc1)NC(=O)[C@H](CCC(=O)O)NC(=O)[C@H](CCCNC(N)=O)NC(=O)[C@@H](N)CC(C)C)C(C)C)[C@@H](C)CC)C(=O)O [Cyk8 371-388 cit, L-cit-EYQELMNVKLALDIEI] (H-L[Cit]EYQELMNVKLALDIEI-OH)	no associated toxicity	–	–	–	–	–	–
LTDEINFL-cit-QLYEEEI-cit-ELQ (LTDEINFL[Cit]QLYEEEI[Cit]ELQ) [Cyk8 217-236 cit, Cyk8 217-236, citrullinated at positions 225 and 233]	–	Moderate to high	no cross-reactivity	significant immune responses	potent T cell responses	minimal reactivity	log EC50 (avidity of T cell response) ([3]; unit not given): -5.0 to-5.9
CC[C@H](C)[C@H](NC(=O)[C@H](CCC(=O)O)NC(=O)[C@@H](NC(=O)[C@H](CC(=O)O)NC(=O)[C@H](CC(C)C)NC(=O)[C@H](C)NC(=O)[C@H](CC(C)C)NC(=O)[C@H](CCCCN)NC(=O)[C@@H](NC(=O)[C@H](CC(N)=O)NC(=O)[C@H](CCSC)NC(=O)[C@H](CC(C)C)NC(=O)[C@H](CCC(=O)O)NC(=O)[C@H](CCC(N)=O)NC(=O)[C@H](Cc1ccc(O)cc1)NC(=O)[C@H](CCC(=O)O)NC(=O)[C@H](CCCNC(=N)N)NC(=O)[C@@H](N)CC(C)C)C(C)C)[C@@H](C)CC)C(=O)O [Cyk8 371-388 wt, LREYQELMNVKLALDIEI, reference compound] (H-LREYQELMNVKLALDIEI-OH)	no associated toxicity	–	–	–	–	–	–
KFASFIDKVRFLEQQNKMLE (listed as Homo sapiens) [Cyk8 101-120 wt, wild type (unmodified) Cyk8 101-120 peptide, reference compound]	–	Low to moderate	–	–	–	–	–
